Data taken from publication PMC11822212, “High-throughput screening identifies Aurora kinase B as a critical therapeutic target for Merkel cell carcinoma” (Nature Communications, 2025).
Where two headings read alike, the source gives them in different places.

What was measured:
MCC13 cells (VN-MCC) = assay: qHTS cell viability (CellTiter-Glo, 72 h; primary and follow-up small molecule screen); assay type: cell-based, human
MCC26 cells (VN-MCC) = assay: as above; assay type: cell-based, human
UISO cells (VN-MCC) = assay: as above; assay type: cell-based, human
WAGA cells (VP-MCC) = assay: as above; assay type: cell-based, human
MKL-1 cells (VP-MCC) = assay: as above; assay type: cell-based, human
MKL-2 cells (VP-MCC) = assay: as above; assay type: cell-based, human
HACAT cells = assay: qHTS cell viability (CellTiter-Glo, 72 h; primary screen), control cell line; assay type: cell-based, human
HEK293T cells = assay: as above; assay type: cell-based, human
NIH-3T3 cells = assay: as above; assay type: cell-based, mouse
CRL-7250 cells = assay: as above; assay type: cell-based
[1] = tested on: MCC cell lines (WAGA, MKL-1, MKL-2, MCC13, MCC26, UISO); assay: qHTS cell viability, all six MCC cell lines as a group (mean AUC, MCC.avg); assay type: cell-based, human
[2] = tested on: VP-MCC cell lines (WAGA, MKL-1, MKL-2); assay: qHTS cell viability, VP-MCC cell lines as a group (mean AUC, VP.MCC.avg); assay type: cell-based, human
[3] = tested on: VN-MCC cell lines (MCC13, MCC26, UISO); assay: qHTS cell viability, VN-MCC cell lines as a group (mean AUC, VN.MCC.avg); assay type: cell-based, human
[4] = tested on: control cell lines (HACAT, HEK293T, CRL-7250, NIH-3T3); assay: qHTS cell viability, control cell lines as a group (mean AUC, Control.avg); assay type: cell-based
[5] = tested on: six MCC cell lines and four control cell lines; assay: qHTS cell viability, all 10 cell lines screened; assay type: cell-based
[6] = NPC library, qHTS dose-response AUC, MCC13
[7] = NPC library, qHTS dose-response AUC, UISO
[8] = NPC library, qHTS dose-response AUC, WAGA
[9] = NPC library, qHTS dose-response AUC, MKL1
[10] = NPC library, qHTS dose-response AUC, MKL2
[11] = NPC library, qHTS dose-response AUC, HACAT control
[12] = NPC library, qHTS dose-response AUC, NIH3T3 control
[13] = NPC library, qHTS dose-response AUC, CRL7250 control
[14] = NPC library, mean AUC of six MCC cell lines
[15] = NPC library, mean AUC of VP-MCC cell lines
[16] = NPC library, therapeutic window: Control avg AUC minus VP-MCC avg AUC
[17] = NPC library, mean AUC of VN-MCC cell lines
[18] = NPC library, therapeutic window: Control avg AUC minus VN-MCC avg AUC
[19] = NPC library, mean AUC of control cell lines
[20] = NPC library, therapeutic window: Control avg AUC minus MCC avg AUC
[21] = NPC library, 8-point DRC, area under dose-response curve
[22] = NPC library, 8-point DRC, control cell line

For O=C(CCCN1CCC(O)(c2ccc(Br)cc2)CC1)c1ccc(F)cc1 [Bromperidol], the MCC13_AUC (MCC13 cells (VN-MCC); [6]) was 492.435, the MCC13_AUC (MCC13 cells (VN-MCC); area under the dose-response curve, MCC13 cells, AUC<450 = reduced viability) was 492.435 and the “Area under the dose-response curve (AUC) MCC13 Replicate 1” value (MCC13 cells (VN-MCC); follow-up screen, MCC13, replicate 1) was 481.5. The “Area under the dose-response curve (AUC) MCC13 Replicate 2” value (MCC13 cells (VN-MCC); follow-up screen, MCC13, replicate 2) was 447.1, the “Area under the dose-response curve (AUC) MCC13 Replicate 3” value (MCC13 cells (VN-MCC); follow-up screen, MCC13, replicate 3) was 475.2 and the MCC26_AUC (MCC26 cells (VN-MCC); NPC library; qHTS dose-response AUC, MCC26) was 508.837. For the same compound, the MCC26_AUC (MCC26 cells (VN-MCC); area under the dose-response curve, MCC26 cells; AUC<450 = reduced viability) was 508.837, the “Area under the dose-response curve (AUC) MCC26 Replicate 1” value (MCC26 cells (VN-MCC); follow-up screen; MCC26; replicate 1) was 451.5 and the “Area under the dose-response curve (AUC) MCC26 Replicate 2” value (MCC26 cells (VN-MCC); follow-up screen; MCC26; replicate 2) was 430.2. For the same compound, the “Area under the dose-response curve (AUC) MCC26 Replicate 3” value (MCC26 cells (VN-MCC); follow-up screen; MCC26; replicate 3) was 459.8, the UISO_AUC (UISO cells (VN-MCC); [7]) was 465.264 and the UISO_AUC (UISO cells (VN-MCC); area under the dose-response curve, UISO cells, AUC<450 = reduced viability) was 465.264. The “Area under the dose-response curve (AUC) UISO Replicate 1” value (UISO cells (VN-MCC); follow-up screen, UISO, replicate 1) was 462.9, the “Area under the dose-response curve (AUC) UISO Replicate 2” value (UISO cells (VN-MCC); follow-up screen, UISO, replicate 2) was 471.4 and the “Area under the dose-response curve (AUC) UISO Replicate 3” value (UISO cells (VN-MCC); follow-up screen, UISO, replicate 3) was 450.6. For the same compound, the WAGA_AUC (WAGA cells (VP-MCC); [8]) was 81.0002, the WAGA_AUC (WAGA cells (VP-MCC); area under the dose-response curve, WAGA cells, AUC<450 = reduced viability) was 81.0002 and the “Area under the dose-response curve (AUC) WAGA Replicate 1” value (WAGA cells (VP-MCC); follow-up screen, WAGA, replicate 1) was 490.2. For the same compound, the “Area under the dose-response curve (AUC) WAGA Replicate 2” value (WAGA cells (VP-MCC); follow-up screen, WAGA, replicate 2) was 473.6, the “Area under the dose-response curve (AUC) WAGA Replicate 3” value (WAGA cells (VP-MCC); follow-up screen, WAGA, replicate 3) was 491.6 and the MKL1_AUC (MKL-1 cells (VP-MCC); [9]) was 166.857. The MKL1_AUC (MKL-1 cells (VP-MCC); area under the dose-response curve, MKL-1 cells, AUC<450 = reduced viability) was 166.857, the “Area under the dose-response curve (AUC) MKL-1 Replicate 1” value (MKL-1 cells (VP-MCC); follow-up screen, MKL-1, replicate 1) was 478.5 and the “Area under the dose-response curve (AUC) MKL-1 Replicate 2” value (MKL-1 cells (VP-MCC); follow-up screen, MKL-1, replicate 2) was 458.4. For the same compound, the “Area under the dose-response curve (AUC) MKL-1 Replicate 3” value (MKL-1 cells (VP-MCC); follow-up screen, MKL-1, replicate 3) was 486.1, the MKL2_AUC (MKL-2 cells (VP-MCC); [10]) was 116.273 and the MKL2_AUC (MKL-2 cells (VP-MCC); area under the dose-response curve, MKL-2 cells, AUC<450 = reduced viability) was 116.273. For the same compound, the “Area under the dose-response curve (AUC) MKL-2 Replicate 1” value (MKL-2 cells (VP-MCC); follow-up screen, MKL-2, replicate 1) was 432.2, the “Area under the dose-response curve (AUC) MKL-2 Replicate 2” value (MKL-2 cells (VP-MCC); follow-up screen, MKL-2, replicate 2) was 463.9 and the “Area under the dose-response curve (AUC) MKL-2 Replicate 3” value (MKL-2 cells (VP-MCC); follow-up screen, MKL-2, replicate 3) was 462.5. The HACAT_AUC (HACAT cells; [11]) was 453.423, the HACAT_AUC (HACAT cells; area under the dose-response curve, HACAT control cells, AUC<450 = reduced viability) was 453.423 and the HEK293T_AUC (HEK293T cells; NPC library; qHTS dose-response AUC, HEK293T control) was 458.67. It also gave an HEK293T_AUC (HEK293T cells; area under the dose-response curve, HEK293T control cells; AUC<450 = reduced viability) of 458.67, an NIH3T3_AUC (NIH-3T3 cells; [12]) of 484.97 and an NIH3T3_AUC (NIH-3T3 cells; area under the dose-response curve, NIH3T3 control cells, AUC<450 = reduced viability) of 484.97. For the same compound, the CRL7250_AUC (CRL-7250 cells; [13]) was 469.585, the CRL7250_AUC (CRL-7250 cells; area under the dose-response curve, CRL7250 control cells, AUC<450 = reduced viability) was 469.584 and the MCC_Avg_AUC [1, 14] was 305.111. The VP-MCC_Avg_AUC [2, 15] was 121.377, the Control-VP-MCC [2, 16] was 345.285 and the VN-MCC_Avg_AUC [3, 17] was 488.845. It also gave a Control-VN-MCC [3, 18] of -22.1834, a Control_Avg_AUC [4, 19] of 466.662 and a Control-MCC [5, 20] of 161.551.

For CN(C)CCc1c[nH]c2ccc(O)cc12 [Bufotenine], the MCC13_AUC (MCC13 cells (VN-MCC)) was 457.919, the MCC26_AUC (MCC26 cells (VN-MCC)) was 406.205 and the UISO_AUC (UISO cells (VN-MCC)) was 423.411. The WAGA_AUC (WAGA cells (VP-MCC)) was 422.913, the MKL1_AUC (MKL-1 cells (VP-MCC)) was 439.853 and the MKL2_AUC (MKL-2 cells (VP-MCC)) was 417.248. The HACAT_AUC (HACAT cells) was 494.192, the HEK293T_AUC (HEK293T cells) was 488.2 and the NIH3T3_AUC (NIH-3T3 cells) was 494.482. It also gave a CRL7250_AUC (CRL-7250 cells) of 497.008, an MCC_Avg_AUC [1] of 427.925 and a Control-VP-MCC [2] of 66.7991. For the same compound, the VP-MCC_Avg_AUC [2] was 426.671, the Control-VN-MCC [3] was 64.2925 and the VN-MCC_Avg_AUC [3] was 429.178. The Control_Avg_AUC [4] was 493.471 and the Control-MCC [5] was 65.5458.

O=C1CC2(CCCC2)CC(=O)N1CCCCN1CCN(c2ncccn2)CC1 [Buspirone] showed an MCC13_AUC (MCC13 cells (VN-MCC); [21]) of 448.981, an MCC26_AUC (MCC26 cells (VN-MCC); [21]) of 427.549 and a UISO_AUC (UISO cells (VN-MCC); [21]) of 435.953. The WAGA_AUC (WAGA cells (VP-MCC); [21]) was 446.274, the MKL1_AUC (MKL-1 cells (VP-MCC); [21]) was 457.095 and the MKL2_AUC (MKL-2 cells (VP-MCC); [21]) was 407.552. The HACAT_AUC (HACAT cells; [22]) was 483.772, the HEK293T_AUC (HEK293T cells; [22]) was 489.604 and the NIH3T3_AUC (NIH-3T3 cells; [22]) was 490.08. The CRL7250_AUC (CRL-7250 cells; [22]) was 487.221, the MCC_Avg_AUC [1, 14] was 437.234 and the Control-VP-MCC ([2]; NPC library, Control AUC minus VP-MCC AUC (therapeutic window)) was 50.6954. The VP-MCC_Avg_AUC [2, 15] was 436.974, the Control-VN-MCC ([3]; NPC library, Control AUC minus VN-MCC AUC (therapeutic window)) was 50.1753 and the VN-MCC_Avg_AUC [3, 17] was 437.494. It also gave a Control_Avg_AUC [4, 19] of 487.669 and a Control-MCC ([5]; NPC library, Control AUC minus MCC AUC (therapeutic window)) of 50.4353.

In the case of [H]/N=C(\N/C(=N/[H])NCCCCCCNC(=N)NC(=N)Nc1ccc(Cl)cc1)Nc1ccc(Cl)cc1 [Chlorhexidine], the MCC13_AUC (MCC13 cells (VN-MCC); [6]) is reported as 433.192, the MCC26_AUC (MCC26 cells (VN-MCC); NPC library, qHTS dose-response AUC, MCC26) is reported as 406.333 and the UISO_AUC (UISO cells (VN-MCC); [7]) is reported as 378.135. The WAGA_AUC (WAGA cells (VP-MCC); [8]) was 400.622, the MKL1_AUC (MKL-1 cells (VP-MCC); [9]) was 377.448 and the MKL2_AUC (MKL-2 cells (VP-MCC); [10]) was 345.753. The HACAT_AUC (HACAT cells; [11]) was 458.563, the HEK293T_AUC (HEK293T cells; NPC library, qHTS dose-response AUC, HEK293T control) was 398.25 and the NIH3T3_AUC (NIH-3T3 cells; [12]) was 459.651. The CRL7250_AUC (CRL-7250 cells; [13]) was 454.576, the MCC_Avg_AUC ([1]; NPC library, mean AUC of all 6 MCC cell lines) was 390.247 and the MCC_Avg_AUC [1, 14] was 390.247. It also gave a Control-VP-MCC ([2]; Control AUC minus VP-MCC AUC) of 68.1526, a VP-MCC_Avg_AUC [2, 15] of 374.608 and a Control-VP-MCC [2, 16] of 68.1526. The Control-VN-MCC ([3]; Control AUC minus VN-MCC AUC) was 36.8736, the VN-MCC_Avg_AUC [3, 17] was 405.887 and the Control-VN-MCC [3, 18] was 36.8736. The Control_Avg_AUC [4, 19] was 442.76 and the Control-MCC [5, 20] was 52.5131.
